# In PubChem BioAssay (NCI):
#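 Tested at 5 concentrations; 48 h exposure; 96-well plates; endpoints linearly interpolated, else capped at highest concentration. The concentration for full growth arrest is given as TGI.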
# Experiments:
# Assay in all cases: DTP human tumour cell line panel, 48 h
# HCT-116 colon = system: HCT-116 colon
# LXFL 529 NSCLC = system: LXFL 529 NSCLC
# DLD-1 colon = system: DLD-1 colon
# NCI-H23 lung = system: NCI-H23 lung
# HT29 colon = system: HT29 colon
# XF 498 CNS = system: XF 498 CNS
# SNB-78 CNS = system: SNB-78 CNS
# DMS 273 small cell lung = system: DMS 273 small cell lung
# KM20L2 colon = system: KM20L2 colon
# M19-MEL melanoma = system: M19-MEL melanoma
# DMS 114 small cell lung = system: DMS 114 small cell lung
# A498 renal = system: A498 renal
# HOP-18 NSCLC = system: HOP-18 NSCLC
# NCI/ADR-RES ovarian = system: NCI/ADR-RES ovarian
# MDA-MB-435 = system: MDA-MB-435
SMILES,TGI (HCT-116 colon),TGI (LXFL 529 NSCLC),TGI (DLD-1 colon),TGI (NCI-H23 lung),TGI (HT29 colon),TGI (XF 498 CNS),TGI (SNB-78 CNS),TGI (DMS 273 small cell lung),TGI (KM20L2 colon),TGI (M19-MEL melanoma),TGI (DMS 114 small cell lung),TGI (A498 renal),TGI (HOP-18 NSCLC),TGI (NCI/ADR-RES ovarian),TGI (MDA-MB-435)
CCCC(C)NC1=C(NC(C)=O)C(=O)c2ccccc2C1=O (stereo not drawn),> 100 µM,> 100 µM,> 100 µM,> 100 µM,> 100 µM,> 100 µM,> 100 µM,> 100 µM,> 100 µM,> 100 µM,,,,,
Cc1cc(C)[n+](CCOc2ccc(/C(=C(/Cl)c3ccccc3)c3ccccc3)cc2)c(C)c1,7.98 µM,1.82 µM,15.8 µM,6.94 µM,3.48 µM,1.29 µM,19.5 µM,1.48 µM,12.7 µM,1.84 µM,5.43 µM,30.2 µM,,,
CC(=O)C1=C(C)NC2C=CC=CN12 (stereo not drawn),> 100 µM,,> 100 µM,> 100 µM,> 100 µM,> 100 µM,> 100 µM,> 100 µM,> 100 µM,> 100 µM,> 100 µM,> 100 µM,> 100 µM,,
COc1ccc(O)cc1,> 100 µM,> 100 µM,> 100 µM,> 100 µM,> 100 µM,> 100 µM,> 100 µM,,> 100 µM,> 100 µM,> 100 µM,> 100 µM,,,
O=C1Nc2c(ccc(Cl)c2I)C1=O,33.4 µM,27.5 µM,35.3 µM,30.7 µM,> 100 µM,29.9 µM,,37 µM,> 100 µM,24.1 µM,30.1 µM,,,,
CCCCCCCCCCCCCCCCCC(=O)O[C@H](COC(=O)CCCCCCCCCCC)COC(=O)CCCCCCCCCCCCCCC,> 100 µM,> 100 µM,> 100 µM,> 100 µM,> 100 µM,,,> 100 µM,> 100 µM,> 100 µM,> 100 µM,> 100 µM,> 100 µM,,
NC1=NS(=O)(=O)Nc2nc(-c3ccc([N+](=O)[O-])cc3)[nH]c21,> 100 µM,> 100 µM,> 100 µM,> 100 µM,> 100 µM,,,> 100 µM,,> 100 µM,> 100 µM,,> 100 µM,,
NC1=NS(=O)(=O)Nc2nc(-c3ccc(Cl)cc3)c(-c3ccc(Cl)cc3)nc21,> 100 µM,> 100 µM,> 100 µM,> 100 µM,> 100 µM,> 100 µM,> 100 µM,> 100 µM,,> 100 µM,> 100 µM,,> 100 µM,,
COC(=O)N/N=C(\C)C(CN1CCCCC1)C(C1=C(O)c2ccccc2OC1)c1ccccc1 (stereo not drawn),> 100 µM,> 100 µM,> 100 µM,> 100 µM,> 100 µM,> 100 µM,> 100 µM,> 100 µM,> 100 µM,> 100 µM,> 100 µM,> 100 µM,> 100 µM,,
Cc1ccc(/C(O)=C/C(=O)C(=O)/C=C(\O)c2ccc(C)cc2C)c(C)c1,6.58 µM,,,3.5 µM,> 20.8 µM,,,,,,,4.7 µM,,4.12 µM,3.99 µM
CCOC(=O)/C1=C(\C)N(c2ccc(C)cc2)C(=O)c2ccccc2C(=O)c2c(OC(C)=O)ccc(OC(C)=O)c21,35.9 µM,,,71.1 µM,35.7 µM,,,,,,,> 100 µM,,53.9 µM,41.5 µM
CCC1(C)N=C(c2cnccn2)NN1c1ccc(Cl)cc1 (stereo not drawn),> 100 µM,,,> 100 µM,> 100 µM,,,,,,,> 100 µM,,> 100 µM,> 100 µM
O=C(CSc1nnc(Cc2ccccc2)o1)Nc1ccc([N+](=O)[O-])cc1,> 100 µM,> 100 µM,> 100 µM,> 100 µM,> 100 µM,,> 100 µM,> 100 µM,> 100 µM,> 100 µM,72.2 µM,> 100 µM,,,
C=CCCC(=O)CC(O)(C(F)(F)F)C(F)(F)F,> 100 µM,,,> 100 µM,> 100 µM,,,,,,,> 100 µM,,> 100 µM,> 100 µM
O=c1[nH]/c(=C/c2ccc(OCc3ccccc3)cn2)c(=O)[nH]/c1=C/c1ccc(O)cc1,> 69.6 µM,,,5.44 µM,> 100 µM,,,,,,,> 76.7 µM,,2.09 µM,1.64 µM
CC(=O)Nc1cc2c(s1)CCC1CC(=O)NN=C21 (stereo not drawn),> 100 µM,> 100 µM,,> 100 µM,> 100 µM,> 100 µM,> 100 µM,> 100 µM,> 100 µM,> 100 µM,> 100 µM,,,,
CC(=O)O[C@H]1CC[C@@]2(C)C(=CC[C@H]3[C@@H]4C[C@H](N5CCCC5)[C@H](OC(C)=O)[C@@]4(C)CC[C@@H]32)C1,> 100 µM,,,> 100 µM,69.4 µM,,,,,,,> 100 µM,,> 100 µM,82.4 µM
CC(=O)OC1CC2C(C)(C)OC(=O)CC(OC(C)=O)[C@]2(C)C2CCC3(C)C(=CCC3[C@H]3COC(=O)C3)[C@]12C (stereo partly drawn),> 100 µM,> 100 µM,> 100 µM,> 100 µM,> 100 µM,> 100 µM,> 100 µM,> 100 µM,> 100 µM,> 100 µM,> 100 µM,> 100 µM,,,
